The target of data set [1] is cholinesterase. The following applies: ref Kovarova et al., 2013, cited from earlier work; for IC50: read-out: cholinesterase inhibition IC50; for times more toxic than phorate: relative to phorate, from IC50.
The nature of data set [2]: Serum levels of phorate, its metabolites and PAM in the poisoned patient (LC-MS). It is filed as in vivo, human. The following applies: for change of serum level while HP was stopped: seventh-10th day, family rejected HP; for concentration at 1 day / concentration at 4 h / concentration at 3 day / concentration at 5 day / concentration at 7 day / concentration at 10 day / concentration at 12 day / concentration at 14 day / concentration at 16 day / concentration at 18 day: human, in vivo. The protocol: LC-MS was used to detect atropine,PAM,phorate and its metabolites. Ultra-high-pressure liquid chromatography-tandem mass spectrometry on a Sciex Triple TOFTM 5600+ mass spectrometer was used for toxic metabolites terminology screening. Ultra-high-pressure liquid chromatography-tandem mass spectrometry on a Sciextriplequad5500 mass spectrometer was used to detect target analytes quantitatively. Liquid chromatographic separations were performed with a Kinetex C18 column (2.1*50 mm,2.6 μm) from Phenomenex (Torrance, California, United States).Data were processed using the Xcalibur software (version2.0.7) from ThermoFisher.

For data set [3], the target named is T1, cholinesterase (Homo sapiens, UniProt P06276).
T1 construct: from tissue; host or cells: serum of the patient
T1 sequence (P06276 29-602): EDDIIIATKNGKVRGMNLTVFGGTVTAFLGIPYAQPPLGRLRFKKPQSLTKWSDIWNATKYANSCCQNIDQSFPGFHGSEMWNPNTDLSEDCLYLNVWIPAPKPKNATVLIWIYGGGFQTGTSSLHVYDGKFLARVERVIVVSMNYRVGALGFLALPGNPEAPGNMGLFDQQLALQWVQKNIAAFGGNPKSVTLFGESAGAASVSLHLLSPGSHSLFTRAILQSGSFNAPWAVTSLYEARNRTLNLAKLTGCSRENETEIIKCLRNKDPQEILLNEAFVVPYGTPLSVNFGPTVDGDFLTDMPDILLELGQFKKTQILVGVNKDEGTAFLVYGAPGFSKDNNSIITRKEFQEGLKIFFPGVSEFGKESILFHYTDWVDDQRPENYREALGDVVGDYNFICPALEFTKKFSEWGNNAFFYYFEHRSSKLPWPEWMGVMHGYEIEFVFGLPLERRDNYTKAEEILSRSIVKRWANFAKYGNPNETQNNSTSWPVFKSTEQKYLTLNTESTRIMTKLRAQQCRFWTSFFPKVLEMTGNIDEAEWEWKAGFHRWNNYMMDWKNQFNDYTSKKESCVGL
Kind of data set: Serum cholinesterase level of the patient during phorate poisoning. It counts as in vivo. The following applies: for serum cholinesterase activity: patient. The protocol: Cholinesterase levels were measured using petrochemistry products, Ortho Medical Equipment Trade (China) Co., Ltd. slides, and the Medical Device of the PRC Registration Certificate NO.: 20212402803. Dry tablets (rate method) and compound calibrator for cholinesterase were determined by cholinesterase on a vitros5600 automatic biochemical immunoanalyzer (VITROS Chemistry Products, Calibrator kit 6). The reportable range of measurement was 200–12,500 U/L.

Another data set concerns AChE. Set-up: method as in Moyer et al., 2018b. Particulars: within 48 h; ref Moyer et al., 2018b; cited from earlier work.
The conditions of data set [4]: 24 h after ingestion; cited from earlier work.
For data set [5] the following is noted: liposolubility; cited from earlier work.
The mark [6] stands for this setting: patient, day 1, before HP, about 4 h after ingestion of 60% phorate emulsion.

Structures are written as SMILES. Where only a bound is given, the exact number is not on record here.

As for `CCOP(=O)(OCC)SCSCC` [phoratoxon], the IC50 (as a rule, the midpoint of a concentration-inhibition curve) on cholinesterase [1] was 3 µM. For the same compound, the “times more toxic than phorate” value in the data set on cholinesterase [1] is recorded as 1000 times. Moreover, the serum concentration turned out to be 161 ng/mL in data set [2] (patient, day 1, after HP); 195 ng/mL in data set [2] (setting [6]); 27.7 ng/mL in data set [2] (patient, day 3); 3.33 ng/mL in data set [2] (patient, day 5); 2.10 ng/mL in data set [2] (patient, day 7 (HP suspended)); 1.01 ng/mL in data set [2] (patient, day 10 (HP suspended)). Also, the serum concentration in data set [2] (patient, day 12) worked out at 0.433 ng/mL; in data set [2] (patient, day 14), 0.415 ng/mL; in data set [2] (patient, day 16), 0 ng/mL; in data set [2] (patient, day 18), 0 ng/mL. Further, in data set [2], the “change of serum level while HP was stopped” value (from here on “change”) is “gradually fell”.
`C[n+]1ccccc1/C=N/O` [PAM, pralidoxime chloride, reference compound]: in data set [2] (sixth day, after 0.5 g per hour for 5 days), the “concentration of PAM” value is recorded as “significantly increased”.
For the compound `CCOP(=O)(OCC)SC[S+]([O-])CC` (stereo not shown) [phoratoxon sulfoxide], on cholinesterase [1], the 50% inhibitory concentration (IC50) is 0.9 µM. Also, in the data set with cholinesterase [1], the “times more toxic than phorate” value is reported as 1000 times. For the same compound, the serum concentration worked out at 2180 ng/mL in data set [2] (patient, day 1, after HP); 4170 ng/mL in data set [2] (setting [6]); 696 ng/mL in data set [2] (patient, day 3); 304 ng/mL in data set [2] (patient, day 5); 219 ng/mL in data set [2] (patient, day 7 (HP suspended)); 177 ng/mL in data set [2] (patient, day 10 (HP suspended)). Besides, the serum concentration in data set [2] (patient, day 12) was determined as 96.2 ng/mL; in data set [2] (patient, day 14), 72.3 ng/mL; in data set [2] (patient, day 16), 14.5 ng/mL; in data set [2] (patient, day 18) it was 0.743 ng/mL. The “change” value in data set [2] was “gradually fell”.
For `CCOP(=O)(OCC)SCS(=O)(=O)CC` [phoratoxon sulfone], at cholinesterase [1], the IC50 is 0.5 µM and the “times more toxic than phorate” value was 1000 times. In addition, in data set [2] (patient, day 1, after HP), the concentration at 1 day stood at 2110 ng/mL. The concentration at 4 h in data set [2] (setting [6]) was 3240 ng/mL. In addition, the concentration at 3 day in data set [2] (patient, day 3) was 221 ng/mL. Also, in data set [2] (patient, day 5), the concentration at 5 day turned out to be 114 ng/mL. Also, the concentration at 7 day in data set [2] (patient, day 7 (HP suspended)) turned out to be 65.2 ng/mL. The concentration at 10 day in data set [2] (patient, day 10 (HP suspended)) was determined as 44.9 ng/mL. The concentration at 12 day in data set [2] (patient, day 12) was found to be 33.3 ng/mL. In addition, the concentration at 14 day in data set [2] (patient, day 14) was found to be 29.4 ng/mL. The concentration at 16 day in data set [2] (patient, day 16) turned out to be 20.9 ng/mL. The concentration at 18 day in data set [2] (patient, day 18) was found to be 20.3 ng/mL. The “change” value in data set [2] is on record as “gradually fell”.
Regarding `CCOP(=S)(OCC)SCS(=O)(=O)CC` [phorate sulfone], on cholinesterase [1], the IC50 is 40 µM and the “times more toxic than phorate” value was “about 80 times”. In data set [2] (patient, day 1, after HP), the concentration at 1 day stood at 1310 ng/mL. Also, the concentration at 4 h in data set [2] (setting [6]) amounted to 1920 ng/mL. Moreover, the concentration at 3 day in data set [2] (patient, day 3) was 191 ng/mL. The concentration at 5 day in data set [2] (patient, day 5) is 68.9 ng/mL. In addition, in data set [2] (patient, day 7 (HP suspended)), the concentration at 7 day was found to be 30.7 ng/mL. The concentration at 10 day in data set [2] (patient, day 10 (HP suspended)) was determined as 31 ng/mL. Besides, the concentration at 12 day in data set [2] (patient, day 12) is 14.8 ng/mL. Further, the concentration at 14 day in data set [2] (patient, day 14) worked out at 18.2 ng/mL. Also, in data set [2] (patient, day 16), the concentration at 16 day was 10.8 ng/mL. Also, the concentration at 18 day in data set [2] (patient, day 18) was 2.71 ng/mL. In addition, the “change” value in data set [2] is reported as “slight rise”.
Turning to `CCOP(=S)(OCC)SC[S+]([O-])CC` (stereo not shown) [phorate sulfoxide], the IC50 at cholinesterase [1] was 1500 µM. Besides, the concentration at 1 day in data set [2] (patient, day 1, after HP) was determined as 1020 ng/mL. In addition, the concentration at 4 h in data set [2] (setting [6]) turned out to be 1440 ng/mL. Besides, the concentration at 3 day in data set [2] (patient, day 3) is 21.2 ng/mL. Also, in data set [2] (patient, day 5), the concentration at 5 day worked out at 10.9 ng/mL. For the same compound, the concentration at 7 day in data set [2] (patient, day 7 (HP suspended)) was 35.2 ng/mL. Further, the concentration at 10 day in data set [2] (patient, day 10 (HP suspended)) was 80.2 ng/mL. Besides, in data set [2] (patient, day 12), the concentration at 12 day was determined as 18.1 ng/mL. In addition, the concentration at 14 day in data set [2] (patient, day 14) was 17.6 ng/mL. In addition, in data set [2] (patient, day 16), the concentration at 16 day worked out at 1.67 ng/mL. For the same compound, in data set [2] (patient, day 18), the concentration at 18 day came out at 0 ng/mL. In addition, in data set [2], the “change” value is “significant rise”.
On to `CCOP(=S)(OCC)SCSCC` [phorate, phosphorodithioic acid O, O-diethyl S-[(ethylthio)methyl] ester], for which the half-inhibitory concentration (IC50) on cholinesterase [1] was 3100 µM. Moreover, the cholinesterase levels on cholinesterase [3] (23rd day) was 1,634 U/L; on cholinesterase [3] (27th day) it was 3592 U/L; on cholinesterase [3] (34th day) it was 4,821 U/L. Moreover, at cholinesterase [3] (after 30 days), the “serum cholinesterase, share of the normal value” is on record as “about 50%”. Also, the serum cholinesterase activity at cholinesterase [3] (day 1) came out at 268 u/L; at cholinesterase [3] (day 3) it was 200 u/L; at cholinesterase [3] (day 7), 200 u/L; on cholinesterase [3] (day 14), 233 u/L; at cholinesterase [3] (day 28), 3621 u/L. Moreover, at cholinesterase [3] (upon transfer into ICU, after first blood perfusion), the serum cholinesterase is given as 268 U/L. Further, the phorate in blood result in data set [2] (after the first HP treatment and subsequent daily HP treatments) was “not detected”. Also, the “unmetabolized phorate in first blood analysis” value in data set [2] (before HP, about 4 h after ingestion) is listed as “did not detect”. In addition, the “levels in the serum” value in data set [2] (patient, 34th day) is given as below 10 ng/mL. The “aging of AChE inhibited by phorate” value in the data set with AChE was “no significant aging”. Moreover, the “unmetabolized phorate in blood” value in data set [4] is “no longer detectable”. Besides, the logP (usually the decadic logarithm of the partition coefficient of the neutral form, usually between octanol and water) in data set [5] was 3.71.

The record behind these values is article PMC12098374, “Case report: Treatment of severe phorate poisoning” (Frontiers in Toxicology, 2025).
